Reference: a melting point compilation (Tetko et al.)

SMILES | melting point [°C]
CCC(C)(CC)OC(N)=O | 56
O=[N+]([O-])c1cc(F)ccc1Cl | 38
O=Cc1c[nH]nc1-c1ccc(C(F)(F)F)cc1 | 113 to 115
O=S(=O)(Cl)Cc1ccc(Cl)cc1 | 95
CC1(C)CCCCC1O (stereo not given) | 8
S=c1cc(-c2ccccc2)oc(-c2ccccc2)c1 | 170
CCN(C)CC | -196
CC1(O)CC(c2ccccc2)C([N+](=O)[O-])C(c2ccccc2N)O1 (stereo not given) | 148
CC(=O)OC[C@H]1O[C@@H](Oc2ccc(C)cc2)[C@H](OC(C)=O)[C@@H](OC(C)=O)[C@@H]1OC(C)=O | 125 to 126
CN(C)P(=O)(OP(=O)(N(C)C)N(C)C)N(C)C | 17
NC(=S)Nc1ccc(C(F)(F)F)cc1 | 144 to 145
CC1CC(O)CC(C)(C)C1 (stereo not given) | 55.8
O=C(O)CC(CC(=O)O)c1ccc(C(F)(F)F)cc1 | 166 to 168
NC(N)=NCCCCCCCCNCCCCCCCCN=C(N)N | 60
O=S(=O)(Cl)c1ccc(-c2ccno2)s1 | 69 to 70
CCN(CC)C(N)=O | 66 to 71
O=C(Cc1ccccc1)OCCc1ccccc1 | 26.5
CCN(CC)C(=O)c1cccc(C)c1 | -45
Cc1c(C)c(C)c(CC#N)c(C)c1C | 112
COCCl | -104
CC12CCC(C1(C)C)C(CCC(Br)c1ccccc1)(C1(CCC(Br)c3ccccc3)C(=O)C3(C)CCC1C3(C)C)C2=O (stereo not given) | 168
OCc1ccnc(Cl)c1 | 65.5 to 67.5
CCOC(=O)c1c(NC(=S)Nc2ccccc2)sc2c1CCCC2 | 189 to 191

SMILES | melting point [°C]
C=Cc1ccco1 | -94
CC(=O)c1c(-c2ccccc2)cc2ccccc2c1O | 55
O=C1c2ccccc2C(=O)N1CBr | 149 to 154
Nc1cc([N+](=O)[O-])c(/C=C/c2ccccc2)cc1/C=C/c1ccccc1 | 111
NC(=O)c1sc(NCc2ccccc2)nc1N | 196 to 198
Cc1onc(-c2ccccc2)c1CN | 66 to 68
CCCC(=O)OCN1C(=O)NC(c2ccccc2)(c2ccccc2)C1=O | 131
CCCc1ccc(OCC(=O)N2CCN(C(=O)COc3ccc(CCC)cc3OC)CC2)c(OC)c1 | 128
CC12C=CC(=O)C=C1CCC1C2CCC2(C)C(O)CCC12 (stereo not given) | 165
CCCc1ccc(-c2ccc(C(=O)O)cc2)cc1 | 226
O=C(O)c1ccc(-n2cccn2)cc1 | 269 to 270
O=[N+]([O-])N1CCCCC1 | -5.5
COc1cc(C=CC=O)ccc1O | 84
c1ccc(-c2nnc(NC3=NCCN3CN3CCCCC3)s2)cc1 | 133 to 134
C[Si](C)(C)O[Si](C)(C)O[Si](C)(C)C | -80
C[Si]1(C)O[Si](C)(C)O[Si](C)(C)O[Si](C)(C)O[Si](C)(C)O[Si](C)(C)O[Si](C)(C)O[Si](C)(C)O1 | 31.5
Oc1ccc2c(O)c3ccccc3cc2c1O | 208
FC(F)(F)c1cccc(Br)c1 | 1
CC=C(OC)C(=O)O | 58
N#CC(=O)c1ccccc1 | 32.5
O=C(CBr)c1ccsc1 | 61 to 62
Clc1nc2ccccc2s1 | 31.5
COc1cc(CCNC(=O)Cc2ccc(OC)c(OCc3ccccc3)c2)ccc1OCc1ccccc1 | 140

SMILES | melting point [°C]
COC(=O)Cc1csc2ccc(Cl)cc12 | 55 to 56
Cc1nc2cc(Cl)ccc2s1 | 69
C=Cc1cc(C)ccc1C | -35
Cc1cccc2c1Cc1ccccc1-2 | 85
Cc1cccc2ccc3ccccc3c12 | 53.5
CCC(=O)OC1(C(=O)CCl)C(C)CC2C3CCC4=CC(=O)C=CC4(C)C3(F)C(O)CC21C (stereo not given) | 196
O=C(O)CCC(=O)c1ccc2c(c1)OCCO2 | 138 to 140
CC(=O)OCCC(C)C | -78.5
COc1cc(/C=C/C(=O)c2ccc3ccccc3c2)cc(OC)c1OC | 119
COC(=O)c1sc(N(C)C)c(C#N)c1N | 240 to 243
O=[N+]([O-])c1ccc(N2CCCNCC2)nc1 | 111 to 112
CCOC(=O)c1cn2ccccc2n1 | 80 to 83
O=[N+]([O-])c1cc(N=C=S)ccc1Cl | 66
NC1=NC(=O)C(c2ccccc2)O1 (stereo not given) | 256
Oc1cc2c(cc1O)CCN=C2 | 244 to 248
C=CC1(OC(C)=O)CCC2(C)C(CCC3C2CCC2(C)C3CCC23OCCO3)C1 (stereo not given) | 101 to 109
CC(=O)CCc1cc2c(c([N+](=O)[O-])c1)CCC(C)N2C(=O)c1ccc([N+](=O)[O-])cc1 (stereo not given) | 115
Cc1n[nH]c(C)c1Cl | 118
COc1ccc(N=C(CNc2ccc(OC)cc2)Nc2ccc(OC)cc2)cc1 | 158 to 159
Nc1ccc(Cl)c(F)c1 | 60
NS(=O)(=O)c1ccc(C(=O)O)cc1 | 266 to 268
IC12CC3CC(CC(C3)C1)C2 | 75.5
CCOC(=O)CSc1sc(C(=O)OCC)c(N)c1C#N | 141

SMILES | melting point [°C]
O=C(CCCN1CCC(O)(c2ccc(Br)cc2)CC1)c1ccc(F)cc1 | 155
C=CCC1=C(O)C2=CC=C3C(C)=C(C)C(=O)CC3(C)C2=C(O)C1=O (stereo not given) | 171
CC1=C(C(=O)OC(C)C)C(c2ccc([N+](=O)[O-])cc2)NC(=S)N1 (stereo not given) | 75
CSc1ncccc1C(=O)Cl | 94
COc1ccc(CO)c(OC)c1 | 37 to 40
CN(C)c1nc(=O)n(C2CCCCC2)c(=O)n1C | 116
COC(=O)c1cc2cc(S(C)(=O)=O)ccc2[nH]1 | 175 to 179
N#Cc1ccsc1N | 103 to 106
CCOC(=O)c1cc2c(=O)oc3ccccc3c2[nH]c1=O | 313 to 315
Nc1c(F)c(F)nc(F)c1F | 86
CCOC(=O)c1c[nH]c(=O)nc1C(F)(F)F | 165
O=CC(Br)=C(Br)C(=O)O | 123
COC(=O)c1sc2ccccc2c1N | 107 to 108
O=C(O)c1cc2cc(F)ccc2[nH]1 | 254 to 258
C#CC1(O)c2ccccc2-c2ccccc21 | 110
O=C(Cc1ccccc1)OC(=O)Cc1ccccc1 | 73.3
CC(c1ccccc1)N1CC(C(=O)O)CC1=O (stereo not given) | 210 to 213
Nc1c(Cl)cncc1Cl | 161
CN1CCN2c3ncccc3Cc3ccccc3C2C1 (stereo not given) | 115
CNC(=O)Oc1ccc2c(c1)C1(C)CCN(C)C1N2C (stereo not given) | 106

Now from value to compound:

melting point [°C] | SMILES
215 to 216 | CNc1c(C=O)c(=O)oc2ccccc12
189 to 191 | Cc1cc2c(N)cccc2nn1
110 to 113 | CCC(C)NC(=O)C(C(F)(F)F)C(F)(F)F (stereo not given)
312 | Nc1ccc(C(=O)O)cn1
93 | Cc1ccc2nc(C)c(C)nc2c1
233 | CC(=O)Nc1ccc(-c2ccc(N(Nc3ccccc3)C(C)=O)cc2)cc1
207 | O=C1Cc2cc3c(cc21)C(=O)C3
132 to 135 | NC(=S)c1ccc2nonc2c1
35 | Cc1nc(-c2ccccc2)no1
34.5 | Clc1ccnc2ccccc12
69 | Nc1ccc2c(c1)COCO2
147 to 149 | COC(=O)c1sc(-c2ccccc2)cc1N
-17.5 | Brc1ccsc1Br
180 | Cc1cc(C(N)=O)ccc1Br
118 | O=CC=Cc1ccc([N+](=O)[O-])o1
181 | CCN(CC)C(=O)C1=C(C)NC(=O)NC1c1ccccc1 (stereo not given)
68 to 73 | CC(CP(c1ccccc1)c1ccccc1)P(c1ccccc1)c1ccccc1 (stereo not given)
198 to 200 | CC(C)(C)c1cc([N+](=O)[O-])c2cc(C(C)(C)C)cc([N+](=O)[O-])c2c1
90 to 91 | OCc1cc(Cl)ccc1O
196 | CCC1OC(=O)C(C)C(OC2OC(C)CC(N(C)C)C2O)C(C)CC(C)C(=O)C=CC1(C)O (stereo not given)
120 | COc1ccccc1OCC(=O)O

melting point [°C] | SMILES
55 to 56 | O=C(CBr)c1cccc2c1OCCCO2
124 | CCOc1ccc(Cc2nc(C)cc3cc(OC)c(OC)cc23)cc1OC
151 to 160 | CC(C(C#N)C(N)=O)C(C#N)C(N)=O (stereo not given)
35.5 | CCCCOC(=O)c1ccc([N+](=O)[O-])cc1
-18 | CCCCCCCCC=O
125 to 126 | Cc1cc(C)c(CC(=O)CSC#N)c(C)c1
46 to 47 | O=Cc1cc(Br)cs1
100 to 102 | O=C(O)Cc1ccccc1C(F)(F)F
-80 | Cc1cccc2cccnc12
82 to 83 | O=C1Cc2ccccc2CO1
105 to 106 | O=S(=O)(Cl)c1ccc(-c2ccc(Cl)c(Cl)c2)cc1
149 | CC12CCC3=C(CC[C@]4(C)C(=O)CC[C@@H]34)[C@H]1CCC(=O)C2 (stereo not given in full)
177 | O=C(Nc1ccccc1)C(c1ccccc1)c1ccccc1
144 to 145 | Nc1ccc(-c2cccs2)nc1
215 | CCOC(=O)C1=C(C)OC(N)=C(c2nc3ccccc3s2)C1c1ccc(N(C)C)cc1 (stereo not given)
274 | N=C1NC(=O)C(=NNc2ccccc2[N+](=O)[O-])S1
145 to 149 | O=[N+]([O-])c1ccc2c(c1)OCO2
208 | Cc1ccc(N/N=C(/C#N)c2nc(-c3ccc(Cl)cc3)cs2)cc1
206 | CC1CCC2(OC1)OC1CC3C4CCC5CC(O)CCC5(C)C4CCC3(C)C1C2C (stereo not given)
214 | Cc1c(C)c(C)c2c(c1C)C(=O)CC2C(=O)O (stereo not given)
